In PMC7344389, “Discovery of Anti-Amoebic Inhibitors from Screening the MMV Pandemic Response Box on Balamuthia mandrillaris, Naegleria fowleri, and Acanthamoeba castellanii” (Pathogens, 2020):
Like-named read-outs stand apart in the source and are kept apart here.

Test system: Naegleria fowleri trophozoites
Assay: CellTiter-Glo 2.0 trophocidal assay, N. fowleri
Format: cell-based
Settings: for IC50: 72 h, CTG method, duplicate twofold serial dilutions from 10 µM, mean ± SD, read-out: N. fowleri Mean IC50 (µM) ± SD; for Selectivity Index (A549 IC50/N. fowleri IC50): SI = (IC50 A549)/(IC50 Amoeba); for potency against N. fowleri, in words: dose-response, CTG

| Structure (SMILES) | IC50 (Naegleria fowleri) [µM] | Selectivity Index (A549 IC50/N. fowleri IC50) (listed as ravuconazole) | potency against N. fowleri, in words | IC50 (listed as butenafine) [µM] | IC50 [µM] | Selectivity Index (A549 IC50/N. fowleri IC50) | Selectivity Index (A549 IC50/N. fowleri IC50) (listed as terbinafine) |
| --- | --- | --- | --- | --- | --- | --- | --- |
| C[C@@H](c1nc(-c2ccc(C#N)cc2)cs1)[C@](O)(Cn1cncn1)c1ccc(F)cc1F [Ravuconazole] | 0.05 ± 0.02 | ≥ 10 | nanomolar potency |  |  |  |  |
| CN(Cc1ccc(C(C)(C)C)cc1)Cc1cccc2ccccc12 [Butenafine] |  |  |  | ≤ 10 | 1.05 ± 0.35 | ≥9.52 |  |
| Cc1[nH]c2ccccc2c1CCNCc1ccc(/C=C/C(=O)NO)cc1 [Panobinostat] | 0.22 ± 0.06 |  | nanomolar potency |  |  | <1.44 |  |
| CC(=O)Oc1ccccc1C(=O)Nc1ncc([N+](=O)[O-])s1 [Nitazoxanide] | 3.6 |  |  |  |  | ≥2.78 |  |
| CN(C/C=C/C#CC(C)(C)C)Cc1cccc2ccccc12 [Terbinafine] | 0.79 ± 0.7 |  | nanomolar potency |  |  | ≥12.7 | ≥ 10 |
